Data reported in patent US10669272B2, “Substituted naphthyridinone compounds useful as T cell activators” (BRISTOL-MYERS SQUIBB COMPANY, priority 2018, dated 2020).
Like-named read-outs stand apart in the source and are kept apart here.

What was measured:
human DGKα = molecular target: T1, human DGKα (Homo sapiens, UniProt P23743); assay: DGKα LIPGLO assay (extruded liposome substrate), in vitro DGK inhibition; format: biochemical; settings: read-out: DGKa LIPGLO IC50
T1 construct: TVMV protease cleavage site (C); Hexa-His (C); made in house; host or cells: Sf9 insect cells (baculovirus, Bac-to-Bac)
T1 sequence (P23743 with tags, fused parts or gaps): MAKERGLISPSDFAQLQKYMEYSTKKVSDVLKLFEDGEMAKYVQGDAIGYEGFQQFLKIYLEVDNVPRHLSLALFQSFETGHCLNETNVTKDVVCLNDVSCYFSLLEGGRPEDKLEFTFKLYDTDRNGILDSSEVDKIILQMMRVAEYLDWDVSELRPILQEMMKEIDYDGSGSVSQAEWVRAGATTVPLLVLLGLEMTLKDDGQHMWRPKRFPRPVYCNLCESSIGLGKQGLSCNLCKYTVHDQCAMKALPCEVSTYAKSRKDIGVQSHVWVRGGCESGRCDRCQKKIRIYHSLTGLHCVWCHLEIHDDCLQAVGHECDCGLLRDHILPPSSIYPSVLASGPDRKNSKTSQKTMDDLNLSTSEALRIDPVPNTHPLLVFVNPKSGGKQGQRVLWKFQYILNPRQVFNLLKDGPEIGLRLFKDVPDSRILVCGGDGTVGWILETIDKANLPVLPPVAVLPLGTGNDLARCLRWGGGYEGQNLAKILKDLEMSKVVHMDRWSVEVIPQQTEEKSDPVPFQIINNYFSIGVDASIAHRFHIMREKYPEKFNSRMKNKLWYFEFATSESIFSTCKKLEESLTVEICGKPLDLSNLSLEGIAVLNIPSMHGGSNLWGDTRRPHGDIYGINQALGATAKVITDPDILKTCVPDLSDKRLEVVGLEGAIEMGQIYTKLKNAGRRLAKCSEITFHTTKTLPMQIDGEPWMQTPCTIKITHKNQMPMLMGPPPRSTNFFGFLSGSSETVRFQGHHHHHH

human DGKζ = molecular target: T2, human DGKζ (Homo sapiens, UniProt Q13574); assay: DGKζ LIPGLO assay (extruded liposome substrate), in vitro DGK inhibition; format: biochemical; settings: read-out: DGKz LIPGLO IC50
T2 construct: TVMV protease cleavage site (C); Hexa-His (C); made in house; host or cells: Sf9 insect cells (baculovirus, Bac-to-Bac)
T2 sequence (Q13574 with tags, fused parts or gaps isoform Q13574-4): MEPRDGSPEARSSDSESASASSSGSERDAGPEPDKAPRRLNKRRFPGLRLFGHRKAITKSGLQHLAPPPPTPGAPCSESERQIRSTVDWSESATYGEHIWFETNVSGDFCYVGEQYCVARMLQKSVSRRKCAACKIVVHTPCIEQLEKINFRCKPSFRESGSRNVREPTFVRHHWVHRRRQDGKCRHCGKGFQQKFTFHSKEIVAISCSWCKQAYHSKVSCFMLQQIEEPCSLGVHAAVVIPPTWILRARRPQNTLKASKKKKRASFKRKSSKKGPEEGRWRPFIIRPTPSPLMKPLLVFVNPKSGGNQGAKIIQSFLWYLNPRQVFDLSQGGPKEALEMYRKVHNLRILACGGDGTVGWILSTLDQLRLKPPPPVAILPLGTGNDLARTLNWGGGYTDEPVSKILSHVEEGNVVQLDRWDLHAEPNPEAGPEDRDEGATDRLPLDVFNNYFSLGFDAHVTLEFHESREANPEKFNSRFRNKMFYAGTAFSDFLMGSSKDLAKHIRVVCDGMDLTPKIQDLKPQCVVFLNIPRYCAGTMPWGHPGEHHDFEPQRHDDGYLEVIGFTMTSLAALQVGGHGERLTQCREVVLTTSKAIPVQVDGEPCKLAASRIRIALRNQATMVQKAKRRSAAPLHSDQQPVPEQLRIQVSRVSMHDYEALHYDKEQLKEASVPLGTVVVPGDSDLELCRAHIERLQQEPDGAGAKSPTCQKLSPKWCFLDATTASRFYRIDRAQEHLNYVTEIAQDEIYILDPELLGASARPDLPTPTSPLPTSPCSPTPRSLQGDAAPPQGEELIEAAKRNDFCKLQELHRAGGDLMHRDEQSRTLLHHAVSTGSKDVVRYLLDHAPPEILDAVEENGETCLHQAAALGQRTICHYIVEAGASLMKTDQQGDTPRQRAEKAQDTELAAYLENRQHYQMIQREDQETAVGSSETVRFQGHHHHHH

Human venous whole blood = assay: Human whole blood IFN-γ assay; format: cell-based; settings: human whole blood, read-out: INFg Whole Blood Normalized Agonist EC50;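 further: blood from healthy donors exposed to compound for 1 h before stimulation with anti-CD3 and anti-CD28 at 1 µg/mL each, IFN-γ quantified in supernatant by AlphaLISA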
Method: Human Whole Blood IFN-γ Assay
Human venous whole blood (22.5 μL per well), obtained from healthy donors, was pre-treated with compounds for one hour at 37° C. in a humidified 95% air/5% CO2 incubator. The blood was stimulated with 2.5 μL anti-human CD3 and anti-CD28 mAb at a final concentration of 1 μg/mL each for 24 hours at 37° C. IFN-γ in the supernatants was measured using AlphLISA kit (Cat # AL217).

[1] = Homo sapiens, 24 h, anti-CD3 plus anti-CD28, 24 hours, 3 μM reference compound = 100% activation
[2] = anti-CD3 plus anti-CD28, 24 hours, 3 μM reference compound = 100% activation
[3] = normalized to 3 μM reference compound with anti-CD3 plus anti-CD28 as 100% activation
[4] = Homo sapiens, 24 h, normalized to 3 μM reference compound with anti-CD3 plus anti-CD28 as 100% activation

Row | Structure (SMILES) | IC50 (human DGKα; DGKα liposome (LIPGLO) assay) [nM] | IC50 (human DGKζ; DGKζ liposome (LIPGLO) assay) [nM] | EC50 (Human venous whole blood; [1]) [nM] | EC50 (Human venous whole blood; [2]) [nM] | IC50 (human DGKα; liposome (LIPGLO) assay) [nM] | IC50 (human DGKζ; liposome (LIPGLO) assay) [nM] | EC50 (Human venous whole blood; [3]) [nM] | EC50 (Human venous whole blood; [4]) [nM]
1 | C[C@@H]1CN(c2c(C#N)c(=O)n(C)c3ccc(C#N)nc23)CCN1C(c1cccc(Cl)c1)c1ccc(F)cn1 (stereo partly drawn) [Example 926] | 2500 | 4000 | 1200 | – | – | – | – | –
2 | CC(c1ccccc1F)N1C[C@H](C)N(c2c(C#N)c(=O)n(C)c3ccc(C#N)nc23)C[C@H]1C (single isomer, unassigned) [Example 797] | 1800 | 8600 | – | 1800 | – | – | – | –
3 | Cc1cccc(C(c2ccc(F)cc2)N2CCN(c3c(C#N)c(=O)n(C)c4ccc(C#N)nc34)C[C@H]2C)c1 (stereo partly drawn) [Example 917] | 6100 | 700 | – | 850 | – | – | – | –
4 | Cc1ccc(C(c2cc(C)ccn2)N2C[C@H](C)N(c3cc(=O)n(C)c4ccc(C#N)nc34)C[C@H]2C)cc1 (single isomer, unassigned) [Example 461] | – | – | – | – | 1400 | 3600 | 2100 | –
5 | C[C@@H]1CN(c2cc(=O)n(C)c3ccc(C#N)nc23)[C@@H](C)CN1C(c1ccc(F)cc1)c1cc(C2CC2)on1 (single isomer, unassigned) [Example 729] | 1100 | 1800 | 2200 | – | – | – | – | –
6 | C[C@@H]1CN(c2cc(=O)n(C)c3ccc(C#N)nc23)[C@@H](C)CN1Cc1ccc(OC(F)(F)F)c(F)c1 [Example 610] | – | – | – | – | 690 | 13000 | – | 1800
7 | C[C@@H]1CN(c2cc(=O)n(C)c3ccc(C#N)nc23)[C@@H](C)CN1C(c1ccc(F)cc1)c1cc(C2CC2)on1 (single isomer, unassigned) [Example 730] | 44 | 640 | 870 | – | – | – | – | –
8 | Cc1ccc(C(c2ccc(F)cc2)N2C[C@H](C)N(c3c(F)c(=O)n(C)c4ccc(C#N)nc34)C[C@H]2C)cc1 (stereo partly drawn) [Example 332, 7-fluoro-8-((2S,5R)-4-((4-fluorophenyl)(p-tolyl)methyl)-2,5-dimethylpiperazin-1-yl)-5-methyl-6-oxo-5,6-dihydro-1,5-naphthyridine-2-carbonitrile] | – | – | – | – | 3100 | 1000 | – | 1900
9 | C[C@@H]1CN(c2cc(=O)n(C)c3ccc(C#N)nc23)[C@@H](C)CN1C(c1ccc(F)cc1)c1cnsc1 (single isomer, unassigned) [Example 716] | – | – | – | – | 6600 | 20000 | 3100 | –
10 | CCc1ccc(C(c2cccc(Cl)c2)N2C[C@H](C)N(c3cc(=O)n(C)c4ccc(C#N)nc34)C[C@H]2C)nc1 (single isomer, unassigned) [Example 355] | – | – | – | – | 890 | 740 | – | 340
11 | CC(c1ccc(C(F)(F)F)cc1F)N1C[C@H](C)N(c2cc(=O)n(C)c3ccc(C#N)nc23)C[C@H]1C (stereo partly drawn) [Example 431, 8-((2S,5R)-4-(1-(2-fluoro-4-(trifluoromethyl)phenyl)ethyl)-2,5-dimethylpiperazin-1-yl)-5-methyl-6-oxo-5,6-dihydro-1,5-naphthyridine-2-carbonitrile] | – | – | – | – | 7300 | 1100 | – | 1600
12 | C[C@@H]1CN(c2cc(=O)n(C)c3ccc(C#N)nc23)[C@@H](C)CN1C(c1ccc(F)cc1)c1cncc(F)c1 (single isomer, unassigned) [Example 415] | – | – | – | – | 35000 | 19000 | – | 16000
13 | Cc1noc(C(c2ccc(F)cc2)N2C[C@H](C)N(c3cc(=O)n(C)c4ccc(C#N)nc34)C[C@H]2C)n1 (stereo partly drawn) [Example 745] | 380 | 470 | 1100 | – | – | – | – | –
14 | C[C@@H]1CN(c2c(C#N)c(=O)n(C)c3ccc(C#N)nc23)CCN1C(c1ccc(F)cc1)c1ccc(C(F)(F)F)cc1 (single isomer, unassigned) [Example 914] | 1300 | 1500 | – | 1900 | – | – | – | –
15 | Cc1ccc(C(c2ccc(C)cn2)N2C[C@H](C)N(c3cc(=O)n(C)c4ccc(C#N)nc34)C[C@H]2C)cc1 (single isomer, unassigned) [Example 457] | – | – | – | – | 140 | 1100 | 590 | –
16 | Cc1cc(C(c2ccc(F)cc2)N2C[C@H](C)N(c3c(C#N)c(=O)n(C)c4ccc(C#N)nc34)C[C@H]2C)no1 (single isomer, unassigned) [Example 864] | 170 | 1000 | 6500 | – | – | – | – | –
17 | CC[C@@H]1CN(c2cc(=O)n(C)c3ccc(C#N)nc23)[C@@H](C)CN1C(C)c1ccc(OC)cc1 (single isomer, unassigned) [Example 483] | – | – | – | – | 3300 | 3900 | 4300 | –
18 | CC[C@H]1CN(C(c2ccc(F)cc2)c2cscn2)[C@H](CC)CN1c1cc(=O)n(C)c2ccc(C#N)nc12 (single isomer, unassigned) [Example 1070] | – | – | – | – | 13 | 180 | 1100 | –
19 | C[C@@H]1CN(c2cc(=O)n(C)c3ccc(C#N)nc23)[C@@H](C)CN1C(c1ccc(F)cc1)c1cncn1C (stereo partly drawn) [Example 705] | – | – | – | – | 220000 | 19000 | 9100 | –
20 | C[C@@H]1CN(c2cc(=O)n(C)c3ccc(C#N)nc23)[C@@H](C)CN1C(c1ccc(F)cc1)c1nc(N2CCOCC2)no1 (stereo partly drawn) [Example 749] | 670 | 580 | – | 1200 | – | – | – | –
21 | C[C@@H]1CN(c2c(C#N)c(=O)n(C)c3ccc(C#N)nc23)CCN1C(c1ccccc1)c1ccc(F)cc1 (single isomer, unassigned) [Example 879] | 600 | 1100 | – | 1200 | – | – | – | –
22 | CC(c1ccc2c(c1)OCCO2)N1C[C@H](C)N(c2cc(=O)n(C)c3ccc(C#N)nc23)C[C@H]1C (single isomer, unassigned) [Example 1258] | – | – | – | – | 2200 | 15 | – | 2600
23 | CC(c1ccc(F)cc1)N1C[C@H](C)N(c2c(C#N)c(=O)n(C)c3ccc(C#N)nc23)C[C@H]1C (single isomer, unassigned) [Example 782] | 180 | 3400 | 1100 | – | – | – | – | –
24 | C[C@@H]1CN(c2c(C#N)c(=O)n(C)c3ccc(C#N)nc23)CCN1C(c1ccc(F)cc1)c1ccc(C#N)cc1 (single isomer, unassigned) [Example 871] | 1100 | 1300 | 3000 | – | – | – | – | –
25 | CC(C)c1ccc(C(C)N2C[C@H](C)N(c3cc(=O)n(C)c4ccc(C#N)nc34)C[C@H]2C)cc1 (single isomer, unassigned) [Example 1233] | – | – | – | – | 290 | 100 | 380 | –
26 | CCC(c1cc(Cl)cc2c1OCC2)N1C[C@H](C)N(c2cc(=O)n(C)c3ccc(C#N)nc23)C[C@H]1C (single isomer, unassigned) [Example 356] | – | – | – | – | > 250000 | 420 | – | 20000
27 | CC[C@H]1CN(Cc2c(F)cc(F)cc2F)[C@H](C)CN1c1cc(=O)n(C)c2ccc(C#N)nc12 [Example 1148] | – | – | – | – | 38 | 160 | – | 1200
28 | CC[C@H]1CN(C(C)c2ccc(OC(F)F)cc2)[C@H](CC)CN1c1cc(=O)n(C)c2ccc(C#N)nc12 (single isomer, unassigned) [Example 1374] | – | – | – | – | 290 | 280 | 2700 | –
29 | C[C@@H]1CN(c2cc(=O)n(C)c3ccc(C#N)nc23)[C@@H](C)CN1C(c1ccc(F)cc1)c1ccc(P(C)(C)=O)cc1 (single isomer, unassigned) [Example 1292] | – | – | – | – | 8000 | 4100 | – | 12000
